{"source": "paper PMC6958387", "about": "“Biological Evaluation of Arylsemicarbazone Derivatives as Potential Anticancer Agents” (Pharmaceuticals, 2019)", "key": {"CDK2/CyclinA": {"target": "CDK2/CyclinA (Homo sapiens, UniProt P24941)", "assay": "Kinase inhibition assay (ADP-Glo)", "assay_type": "biochemical", "details": "10 µM ATP", "method": "HsCDK2/CyclinA (human, cyclin-dependent kinase-2, kindly provided by Dr. A. Echalier-Glazer, Leicester, UK) was assayed in buffer A with 0.8 µg/µL of histone H1 as substrate."}, "[1]": {"target": "panel of ten different protein kinases", "assay": "Kinase inhibition, panel of ten protein kinases", "assay_type": "biochemical", "details": "3c: except towards HASPIN, CK1 and GSK3; inactive = IC50 > 10 μM; read-out: IC50 across the kinase panel", "text": "A panel of ten native or recombinant protein kinases was used during this study: […]"}, "[2]": {"tested_on": "Peripheral Blood Mononuclear Cells (PBMCs)", "assay": "MTT cytotoxicity in normal cells, 72 h", "assay_type": "cell-based, human", "details": "Homo sapiens, PBMC, 72 h of incubation", "method": "In order to evaluate the cytotoxic potential in normal cells, all the derivatives were tested against Peripheral Blood Mononuclear Cells (PBMCs) and the most promising compounds were again compounds 3c and 4a, which offered more selectivity against the cancer cells.\nMononuclear cells were obtained from the peripheral blood of healthy volunteers by heparin tube collection and isolated by Ficoll-Histopaque gradient centrifugation. After centrifugation, the cells were harvested, washed and resuspended in RPMI 1640 medium supplemented with 20% fetal bovine serum, 2 mM glutamine, 100 U/mL penicillin and 100 μg/mL streptomycin (Gibco™ Life Technologies, Waltham, MA, USA). The phytohemagglutinin mitogen 2% was also added into the culture medium. After that, using the neubauer chamber, the cells were counted and plated in a 96-well plate at a concentration of 10^6 cells/mL and then were maintained for overnight under incubation at 37 °C and 5% CO2 [65].\nThe evaluation of the cytotoxicity of the compounds was performed by the method of 3-(4,5-dimethyl-2-thiazolyl)-2,5-diphenyl-2H-tetrazolium bromide (MTT) (Sigma Aldrich Co., St. Louis, MO, USA). To perform the assay the cells were seeded in 96-well plates at the following concentrations: HL-60 and K562 (0.3 × 10^6 cells/mL); MOLT-4 and PBMC (10^6 cells/mL); NCI-H292, HT-29, HEp-2 e MCF-7 (10^5 cells/mL). Briefly, the compounds previously dissolved in DMSO (dimethylsulfoxide, Vetec, São Paulo, Brazil), were diluted in medium and added to each well at the desired concentrations. For the calculation of the concentration that inhibits 50% of cell growth (IC50) the compounds were serially diluted to obtain the final concentrations between 0.19–25 μg/mL. Doxorubicin was used as the standard in the concentration range between (0.078–10 μg/mL). After 72 h of contact of the cells with the compounds, it was added to each well 25 μL of MTT solution (5 mg/mL). Plates were left for another 3 h in incubator at 37 °C and at the end of that period the supernatant was aspirated. To perform the reading, 100 μL of DMSO was added in each well for the dissolution of the formazan crystals. The amount of formazan was measured by reading the plate at 560 nm absorbance. The IC50 was calculated from the nonlinear regression in the Prisma 7.0 software (GraphPad, San Diego, CA, USA). Each sample was tested in triplicate in three independent experiments."}, "DYRK1A": {"target": "T1, DYRK1A (Rattus norvegicus, UniProt Q63470)", "T1 construct": "amino acids 1 to 499 including the kinase domain; made in house; host or cells: bacteria", "assay": "Kinase inhibition assay (ADP-Glo)", "assay_type": "biochemical", "details": "10 µM ATP", "method": "RnDYRK1A (Rattus norvegicus, amino acids 1 to 499 including the kinase domain, recombinant, expressed in bacteria, DNA vector kindly provided by Dr. W. Becker, Aachen, Germany) was assayed in buffer A with 0.033 μg/µL of the following peptide: KKISGRLSPIMTEQ as substrate."}, "HL-60 cells [3]": {"tested_on": "HL-60 cells", "assay": "Cell cycle assay (propidium iodide), flow cytometry", "assay_type": "cell-based, human", "details": "72 h", "method": "In order to improve the study of the mechanism of death induction by compounds 3c and 4a in HL-60 cells, a test was performed on the flow cytometer after staining with propidium iodide to evaluate the effect of the compounds on cell cycle progression (Figure 6).\n(§1) HL-60 cells (3 × 10^5) were plated in 24-well plates and treated with the compounds 3c (13 and 26 μM) and 4a (11 and 22 μM) for 72 h at 37 °C with 5% CO2. In all trials, doxorubicin was used as a positive control. After the incubation period, an aliquot of 500 μL of treated and untreated cells suspension was transferred to an Eppendorf tube and centrifuged to remove the supernatant and continue the protocol of the test. In the cell viability and annexin V assays, kits were used, ViaCount kit and guava nexin kit (Guava Technologies), respectively. The protocols performed in these tests followed the manufacturer’s instructions. For to analyze mitochondrial depolarization, rhodamine 123 fluorescent dye was used. In the assay for cell cycle analysis and DNA fragmentation propidium iodide was used. The experiments were performed on Guava EasyCyte HT (Merck-Millipore) flow cytometer, acquiring 5000 events. The data were analyzed in Guava-Soft™ software version 2.7. Three independent experiments were performed in triplicate."}, "HL-60 cells [4]": {"tested_on": "HL-60 cells", "assay": "Mitochondrial transmembrane potential (rhodamine 123), flow cytometry", "assay_type": "cell-based, human", "details": "72 h", "method": "In this sense, in order to evaluate if compounds 3c and 4a induce apoptosis by alterating the mitochondria transmembrane potential, this assay was performed by flow cytometry using the fluorochrome rhodamine 123, because this is able to accumulate in cells with unchanged mitochondrial transmembrane potential.\nas §1"}, "HL-60 cells [5]": {"tested_on": "HL-60 cells", "assay": "Annexin V-FITC/7-AAD test, flow cytometry", "assay_type": "cell-based, human", "details": "for cells in initial apoptosis [Annexin V(+) and 7-AAD(−)] / cells in late apoptosis [Annexin V(+) and 7-AAD(+)] / dead cells [Annexin V(−) and 7-AAD (+)]: 72 h", "method": "Aiming to better study the mechanism of induction of death involved in HL-60 cells after treatment with compounds 3c and 4a, a flow cytometric test was performed after double staining with annexin V-FITC/7-AAD. This assay is based on the ability of annexin V to bind with high affinity to phosphatidylserine which is translocated to the outer membrane of apoptotic cells and the 7-AAD dye binds to the DNA of cells with loss of membrane integrity. Thus, in this test it is possible to identify four distinct populations: viable cells [Annexin V(−) and 7-AAD(−)], initial apoptotic cells [Annexin V(+) and 7-AAD(−)], late apoptotic cells [Annexin V(+) and 7-AAD(+)] and dead cells [Annexin V(−) and 7-AAD (+)] [59].\nas §1"}, "HL-60 cells [6]": {"tested_on": "HL-60 cells", "assay": "DNA fragmentation assay (sub-G1, propidium iodide)", "assay_type": "cell-based, human", "details": "72 h", "text": "DNA fragmentation is initiated after chromatin condensation and depends on several variables, such as the time required for the depolarization of the mitochondria and activation of the caspase cascade. In response to DNA damage the p53 protein is activated causing cell cycle arrest in G1 [57]. At flow cytometry the apoptotic cells with fragmented DNA can be identified as the sub-G1 population, seen to the left of the G1 peak. Thus, using the fluorochrome propidium iodide and the same principle of the cell cycle test, an assay was performed to identify HL-60 cells with fragmented DNA (Figure 7).\nas §1"}}}
{"smiles": "Cc1ccc(C=NNC(N)=O)cc1", "note": "[Compound 3g, 4-Methylbenzaldehyde Semicarbazone]", "values": [{"measurement": "IC50", "setting": "CDK2/CyclinA", "result": "> 10", "unit": "µM"}, {"measurement": "IC50", "setting": "[1]", "result": "> 10", "unit": "µM"}, {"measurement": "IC50", "setting": "[2]", "result": "> 100", "unit": "µM"}, {"measurement": "IC50", "setting": "DYRK1A", "result": "> 10", "unit": "µM"}]}
{"smiles": "NC(=O)N/N=C/c1c(O)ccc2ccccc12", "note": "[Compound 3c, 2-Hydroxynaphthaldehyde Semicarbazone]", "values": [{"measurement": "IC50", "setting": "CDK2/CyclinA", "result": 0.53, "unit": "µM"}, {"measurement": "cells in G1 phase", "setting": "HL-60 cells [3]; 13 μM", "result": 63.3, "unit": "%"}, {"measurement": "cells in G1 phase", "setting": "HL-60 cells [3]; 26 μM", "result": 66.2, "unit": "%"}, {"measurement": "IC50", "setting": "[1]", "result": "0.073 to 5.1", "unit": "µM"}, {"measurement": "IC50", "setting": "[2]", "result": "82 ± 1.63", "unit": "µM"}, {"measurement": "depolarized cells", "setting": "HL-60 cells [4]; 13 μM", "result": 30.9, "unit": "%"}, {"measurement": "depolarized cells", "setting": "HL-60 cells [4]; 26 μM", "result": 34.2, "unit": "%"}, {"measurement": "cells in initial apoptosis [Annexin V(+) and 7-AAD(−)]", "setting": "HL-60 cells [5]; 13 μM", "result": 16.7, "unit": "%"}, {"measurement": "cells in late apoptosis [Annexin V(+) and 7-AAD(+)]", "setting": "HL-60 cells [5]; 13 μM", "result": 7.4, "unit": "%"}, {"measurement": "cells in initial apoptosis [Annexin V(+) and 7-AAD(−)]", "setting": "HL-60 cells [5]; 26 μM", "result": 27.2, "unit": "%"}, {"measurement": "cells in late apoptosis [Annexin V(+) and 7-AAD(+)]", "setting": "HL-60 cells [5]; 26 μM", "result": 18.1, "unit": "%"}, {"measurement": "cells in apoptosis (annexin V assay)", "setting": "HL-60 cells [5]; highest concentration tested (26 μM)", "result": "approximately 50%"}, {"measurement": "IC50", "setting": "DYRK1A", "result": 0.073, "unit": "µM"}, {"measurement": "cells with DNA fragmentation", "setting": "HL-60 cells [6]; 13 μM", "result": 3.2, "unit": "%"}, {"measurement": "cells with DNA fragmentation", "setting": "HL-60 cells [6]; 26 μM", "result": 7.5, "unit": "%"}]}
{"smiles": "CCCCN(N=Cc1ccc([N+](=O)[O-])o1)C(N)=O", "note": "[Compound 4a, 5-Nitro-2-(N^2-n-butyl)furfuraldehyde Semicarbazone]", "values": [{"measurement": "IC50", "setting": "CDK2/CyclinA", "result": "> 10", "unit": "µM"}, {"measurement": "cells in G1 phase", "setting": "HL-60 cells [3]; 11 μM", "result": 62.7, "unit": "%"}, {"measurement": "cells in G1 phase", "setting": "HL-60 cells [3]; 22 μM", "result": 81.9, "unit": "%"}, {"measurement": "IC50", "setting": "[2]", "result": "51.2 ± 0.75", "unit": "µM"}, {"measurement": "depolarized cells", "setting": "HL-60 cells [4]; 22 μM", "result": 59.3, "unit": "%"}, {"measurement": "cells in initial apoptosis [Annexin V(+) and 7-AAD(−)]", "setting": "HL-60 cells [5]; 11 μM", "result": 5.4, "unit": "%"}, {"measurement": "cells in late apoptosis [Annexin V(+) and 7-AAD(+)]", "setting": "HL-60 cells [5]; 11 μM", "result": 8.3, "unit": "%"}, {"measurement": "dead cells [Annexin V(−) and 7-AAD (+)]", "setting": "HL-60 cells [5]; 11 μM", "result": 9.1, "unit": "%"}, {"measurement": "cells in initial apoptosis [Annexin V(+) and 7-AAD(−)]", "setting": "HL-60 cells [5]; 22 μM", "result": 4.7, "unit": "%"}, {"measurement": "cells in late apoptosis [Annexin V(+) and 7-AAD(+)]", "setting": "HL-60 cells [5]; 22 μM", "result": 12.5, "unit": "%"}, {"measurement": "dead cells [Annexin V(−) and 7-AAD (+)]", "setting": "HL-60 cells [5]; 22 μM", "result": "~50", "unit": "%"}, {"measurement": "IC50", "setting": "DYRK1A", "result": "> 10", "unit": "µM"}, {"measurement": "cells with DNA fragmentation", "setting": "HL-60 cells [6]; 11 μM", "result": 7.0, "unit": "%"}, {"measurement": "cells with DNA fragmentation", "setting": "HL-60 cells [6]; 22 μM", "result": 40.3, "unit": "%"}]}
